# In patent publication US8192962B2, “Processes for detecting toxic substances” (Daikin Industries, Ltd., priority 2001, dated 2012):
# System: Metabolism protein genes
# Assay: DNA chip mRNA expression in yeast, metabolism protein genes (Table 7)
# Type: cell-based, Saccharomyces cerevisiae S288C
# Outline: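 Untreated cultures served as reference for log-phase S288C yeast given a growth-inhibiting, non-lethal toxicant dose for 2 h at 25° C. in YPD. Gene expression was measured on a whole-genome DNA chip from Cy3/Cy5-labeled cDNA.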
structure (smiles),measurement,setting,value
"C=CC=O [(14), acrolein]",The level of expressed mRNA in the presence of chemical substance/The level of expressed mRNA in the absence of chemical substance,yeast gene YAL012W,0.9
same,The level of expressed mRNA in the presence of chemical substance/The level of expressed mRNA in the absence of chemical substance,yeast gene YAL038W,0.5
same,level of expressed mRNA in the presence/in the absence of chemical substance,yeast gene YBR003W,0.8
same,level of expressed mRNA in the presence/in the absence of chemical substance,yeast gene YBR011C,0.9
same,level of expressed mRNA in the presence/in the absence of chemical substance,yeast gene YBR020W,1.0
same,The level of expressed mRNA in the presence of chemical substance/The level of expressed mRNA in the absence of chemical substance,yeast gene YBR023C,0.8
same,The level of expressed mRNA in the presence of chemical substance/The level of expressed mRNA in the absence of chemical substance,yeast gene YBR029C,0.9
same,The level of expressed mRNA in the presence of chemical substance/The level of expressed mRNA in the absence of chemical substance,yeast gene YBR068C,1.8
same,The level of expressed mRNA in the presence of chemical substance/The level of expressed mRNA in the absence of chemical substance,yeast gene YBR183W,1.3
same,The level of expressed mRNA in the presence of chemical substance/The level of expressed mRNA in the absence of chemical substance,yeast gene YBR222C,0.5
same,The level of expressed mRNA in the presence of chemical substance/The level of expressed mRNA in the absence of chemical substance,yeast gene YBR256C,5.6
same,The level of expressed mRNA in the presence of chemical substance/The level of expressed mRNA in the absence of chemical substance,yeast gene YCL009C,0.7
same,The level of expressed mRNA in the presence of chemical substance/The level of expressed mRNA in the absence of chemical substance,yeast gene YCL064C,0.8
same,level of expressed mRNA in the presence/in the absence of chemical substance,yeast gene YCR010C,1.2
same,level of expressed mRNA in the presence/in the absence of chemical substance,yeast gene YCR034W,0.6
same,The level of expressed mRNA in the presence of chemical substance/The level of expressed mRNA in the absence of chemical substance,yeast gene YCR048W,0.9
same,The level of expressed mRNA in the presence of chemical substance/The level of expressed mRNA in the absence of chemical substance,yeast gene YCR098C,1.1
same,The level of expressed mRNA in the presence of chemical substance/The level of expressed mRNA in the absence of chemical substance,yeast gene YDR019C,1.6
same,level of expressed mRNA in the presence/in the absence of chemical substance,yeast gene YDR050C,1.2
same,level of expressed mRNA in the presence/in the absence of chemical substance,yeast gene YDR073W,1.2
same,level of expressed mRNA in the presence/in the absence of chemical substance,yeast gene YDR123C,0.7
same,level of expressed mRNA in the presence/in the absence of chemical substance,yeast gene YDR178W,1.5
same,level of expressed mRNA in the presence/in the absence of chemical substance,yeast gene YDR277C,1.3
same,level of expressed mRNA in the presence/in the absence of chemical substance,yeast gene YDR284C,1.3
same,level of expressed mRNA in the presence/in the absence of chemical substance,yeast gene YDR345C,0.8
same,The level of expressed mRNA in the presence of chemical substance/The level of expressed mRNA in the absence of chemical substance,yeast gene YDR380W,0.6
same,level of expressed mRNA in the presence/in the absence of chemical substance,yeast gene YDR400W,0.9
same,level of expressed mRNA in the presence/in the absence of chemical substance,yeast gene YDR408C,0.9
same,level of expressed mRNA in the presence/in the absence of chemical substance,yeast gene YDR483W,0.8
same,The level of expressed mRNA in the presence of chemical substance/The level of expressed mRNA in the absence of chemical substance,yeast gene YDR497C,0.6
same,The level of expressed mRNA in the presence of chemical substance/The level of expressed mRNA in the absence of chemical substance,yeast gene YDR502C,0.8
same,The level of expressed mRNA in the presence of chemical substance/The level of expressed mRNA in the absence of chemical substance,yeast gene YDR516C,0.7
same,level of expressed mRNA in the presence/in the absence of chemical substance,yeast gene YEL063C,0.8
same,level of expressed mRNA in the presence/in the absence of chemical substance,yeast gene YER015W,1.1
same,The level of expressed mRNA in the presence of chemical substance/The level of expressed mRNA in the absence of chemical substance,yeast gene YER026C,1.1
same,The level of expressed mRNA in the presence of chemical substance/The level of expressed mRNA in the absence of chemical substance,yeast gene YER053C,1.3
same,The level of expressed mRNA in the presence of chemical substance/The level of expressed mRNA in the absence of chemical substance,yeast gene YER069W,1.3
same,level of expressed mRNA in the presence/in the absence of chemical substance,yeast gene YER081W,1.6
same,The level of expressed mRNA in the presence of chemical substance/The level of expressed mRNA in the absence of chemical substance,yeast gene YER096W,3.1
same,level of expressed mRNA in the presence/in the absence of chemical substance,yeast gene YER120W,0.9
same,The level of expressed mRNA in the presence of chemical substance/The level of expressed mRNA in the absence of chemical substance,yeast gene YER178W,0.9
same,level of expressed mRNA in the presence/in the absence of chemical substance,yeast gene YFL011W,0.8
same,The level of expressed mRNA in the presence of chemical substance/The level of expressed mRNA in the absence of chemical substance,yeast gene YFL014W,7.3
same,The level of expressed mRNA in the presence of chemical substance/The level of expressed mRNA in the absence of chemical substance,yeast gene YFL030W,0.8
same,The level of expressed mRNA in the presence of chemical substance/The level of expressed mRNA in the absence of chemical substance,yeast gene YFL031W,0.4
same,The level of expressed mRNA in the presence of chemical substance/The level of expressed mRNA in the absence of chemical substance,yeast gene YFL056C,7.8
same,The level of expressed mRNA in the presence of chemical substance/The level of expressed mRNA in the absence of chemical substance,yeast gene YFL057C,23.4
same,The level of expressed mRNA in the presence of chemical substance/The level of expressed mRNA in the absence of chemical substance,yeast gene YFR047C,1.9
same,level of expressed mRNA in the presence/in the absence of chemical substance,yeast gene YGL012W,0.8
same,The level of expressed mRNA in the presence of chemical substance/The level of expressed mRNA in the absence of chemical substance,yeast gene YGL022W,0.5
same,level of expressed mRNA in the presence/in the absence of chemical substance,yeast gene YGL115W,1.2
same,level of expressed mRNA in the presence/in the absence of chemical substance,yeast gene YGL205W,1.0
same,The level of expressed mRNA in the presence of chemical substance/The level of expressed mRNA in the absence of chemical substance,yeast gene YGL209W,1.6
same,The level of expressed mRNA in the presence of chemical substance/The level of expressed mRNA in the absence of chemical substance,yeast gene YGL248W,1.3
same,The level of expressed mRNA in the presence of chemical substance/The level of expressed mRNA in the absence of chemical substance,yeast gene YGR037C,1.5
same,The level of expressed mRNA in the presence of chemical substance/The level of expressed mRNA in the absence of chemical substance,yeast gene YGR055W,1.2
same,level of expressed mRNA in the presence/in the absence of chemical substance,yeast gene YGR096W,1.2
same,level of expressed mRNA in the presence/in the absence of chemical substance,yeast gene YGR191W,0.7
same,The level of expressed mRNA in the presence of chemical substance/The level of expressed mRNA in the absence of chemical substance,yeast gene YGR194C,1.0
same,level of expressed mRNA in the presence/in the absence of chemical substance,yeast gene YGR204W,0.5
same,The level of expressed mRNA in the presence of chemical substance/The level of expressed mRNA in the absence of chemical substance,yeast gene YGR256W,1.1
same,The level of expressed mRNA in the presence of chemical substance/The level of expressed mRNA in the absence of chemical substance,yeast gene YGR282C,1.0
same,level of expressed mRNA in the presence/in the absence of chemical substance,yeast gene YGR288W,1.1
same,level of expressed mRNA in the presence/in the absence of chemical substance,yeast gene YHR025W,0.6
same,The level of expressed mRNA in the presence of chemical substance/The level of expressed mRNA in the absence of chemical substance,yeast gene YHR111W,1.7
same,level of expressed mRNA in the presence/in the absence of chemical substance,yeast gene YHR123W,0.8
same,The level of expressed mRNA in the presence of chemical substance/The level of expressed mRNA in the absence of chemical substance,yeast gene YHR137W,0.8
same,The level of expressed mRNA in the presence of chemical substance/The level of expressed mRNA in the absence of chemical substance,yeast gene YHR174W,0.6
same,The level of expressed mRNA in the presence of chemical substance/The level of expressed mRNA in the absence of chemical substance,yeast gene YHR176W,1.3
same,level of expressed mRNA in the presence/in the absence of chemical substance,yeast gene YHR210C,1.0
same,level of expressed mRNA in the presence/in the absence of chemical substance,yeast gene YIL006W,1.0
same,The level of expressed mRNA in the presence of chemical substance/The level of expressed mRNA in the absence of chemical substance,yeast gene YIL045W,1.6
same,The level of expressed mRNA in the presence of chemical substance/The level of expressed mRNA in the absence of chemical substance,yeast gene YIL107C,1.6
same,The level of expressed mRNA in the presence of chemical substance/The level of expressed mRNA in the absence of chemical substance,yeast gene YIL154C,0.9
same,The level of expressed mRNA in the presence of chemical substance/The level of expressed mRNA in the absence of chemical substance,yeast gene YIL155C,1.3
same,The level of expressed mRNA in the presence of chemical substance/The level of expressed mRNA in the absence of chemical substance,yeast gene YIL167W,1.4
same,The level of expressed mRNA in the presence of chemical substance/The level of expressed mRNA in the absence of chemical substance,yeast gene YIR034C,1.2
same,The level of expressed mRNA in the presence of chemical substance/The level of expressed mRNA in the absence of chemical substance,yeast gene YIR036C,1.2
same,The level of expressed mRNA in the presence of chemical substance/The level of expressed mRNA in the absence of chemical substance,yeast gene YJL031C,3.0
same,The level of expressed mRNA in the presence of chemical substance/The level of expressed mRNA in the absence of chemical substance,yeast gene YJL068C,1.5
same,The level of expressed mRNA in the presence of chemical substance/The level of expressed mRNA in the absence of chemical substance,yeast gene YJL088W,2.0
same,The level of expressed mRNA in the presence of chemical substance/The level of expressed mRNA in the absence of chemical substance,yeast gene YJL099W,1.8
same,level of expressed mRNA in the presence/in the absence of chemical substance,yeast gene YJL121C,0.9
same,level of expressed mRNA in the presence/in the absence of chemical substance,yeast gene YJL167W,0.9
same,The level of expressed mRNA in the presence of chemical substance/The level of expressed mRNA in the absence of chemical substance,yeast gene YJL172W,0.9
same,level of expressed mRNA in the presence/in the absence of chemical substance,yeast gene YJL216C,1.1
same,The level of expressed mRNA in the presence of chemical substance/The level of expressed mRNA in the absence of chemical substance,yeast gene YJL219W,1.1
same,level of expressed mRNA in the presence/in the absence of chemical substance,yeast gene YJR077C,0.7
same,The level of expressed mRNA in the presence of chemical substance/The level of expressed mRNA in the absence of chemical substance,yeast gene YJR137C,1.2
same,level of expressed mRNA in the presence/in the absence of chemical substance,yeast gene YJR143C,0.6
same,The level of expressed mRNA in the presence of chemical substance/The level of expressed mRNA in the absence of chemical substance,yeast gene YJR148W,1.3
same,The level of expressed mRNA in the presence of chemical substance/The level of expressed mRNA in the absence of chemical substance,yeast gene YJR155W,9.4
same,The level of expressed mRNA in the presence of chemical substance/The level of expressed mRNA in the absence of chemical substance,yeast gene YKL035W,0.6
